Results from patent publication US20160136284A1, “GLIOMA TREATMENT” (priority 2012, published 2016).
Entries after “also recorded” stand apart in the source; their conditions may differ.

What was measured:
synaptophysin = experiment: Synaptophysin ELISA of rat brain homogenates after carboplatin infusion; type: in vivo; conditions: 72 hours after infusion
Description: Brain tissue homogenates were prepared from dissected samples of unfixed frozen hemispheres from rats at 72 hours after infusion of either artificial CSF (control) or carboplatin at concentrations of 0.36 and 0.72 mg/ml. Tissue samples incorporating the overlying cerebral cortex (approximately 200 mg) were dissected and homogenised for 75 s using a Precellys 24 automated tissue homogeniser (Stretton Scientific) with 2.3 mm silica beads (Biospec) in 1% SDS, 10 mM tris base (pH 6.0), 0.1 mM sodium chloride, and the protease inhibitors aprotinin (1 μg/ml; Sigma) and PMSF (10 μM; Sigma). The resultant crude tissue homogenates were centrifuged at 13,000 rpm for 15 min at 4° C., and the supernatants aliquoted and stored at −80° C.
Ninety-six-well plates (Nunc Maxisorp) were coated with primary rabbit anti-synaptophysin polyclonal antibody (Abeam) at a concentration of 1 μg/ml, and incubated overnight at 4° C. After 5 washes with wash buffer, non-specific binding was blocked with the addition of 1% BSA/PBS for 2 hours. After 5 washes with wash buffer, serial dilutions of recombinant synaptophysin or the supernatant of crude homogenates were added to wells in triplicate, and incubated at room temperature for 2 hours. […] Plates were read in a microplate reader at 405 nm (BMG Labtech).

[1] = system: diffuse intrinsic pontine glioma; experiment: CED of carboplatin in a patient with diffuse intrinsic pontine glioma
Source text: MR imaging under general anaesthetic was undertaken to facilitate pre-operative stereotactic planning (field strength 3 T, Philips Achieva TX, Philips Healthcare, The Netherlands) one week prior to surgery. […] A left transfrontal trajectory for catheter implantation was planned (FIGS. 7a-d) facilitating the in-house manufacture of a bespoke catheter with a winged hub (FIG. 8a). The catheter was manufactured from polyether ether ketone (PEEK) with an outer diameter (OD) of 0.6 mm, which was bonded onto a fused silica cannula with a laser-cut tip (OD 0.23 mm). The catheter was designed to be implanted through a 1 mm OD carbothane guide-tube.
On the day of surgery the patient was anaesthetised and placed in a Leksell frame. A pre-operative CT angiogram was performed and co-registered with the post-contrast T1 weighted planning MRI scan to facilitate output of stereotactic co-ordinates to a Neuro|Mate® neurosurgical robot (Renishaw) (FIG. 8b). A 3 cm left frontal curvilinear scalp incision was made and the periosteum retracted. The robot was driven to the entry position on the skull, and using custom-made hand drills, a multi-featured burr hole made into which the guide tube hub would push fit. The dura was pierced and a 1 mm guide rod inserted to a point 24 mm proximal to the target within the tumour. The guide tube was then implanted on a 0.6 mm guide rod to maintain trajectory. The catheter was tunnelled out through a separate stab incision in the scalp and connected to a custom-made in-line gas and bacterial filter. The catheter was attached to an infusion pump (B Braun, Melsungen, Germany) and primed with artificial cerebrospinal fluid (Torbay Pharmaceutical Manufacturing Unit, Torbay, UK). The fused silica catheter was then implanted via the guide-tube with 3 mm of fused silica retained within the guide tube and 24 mm extending beyond the guide-tube tip, thus creating a “recessed-step” within the distal guide-tube (FIG. 8c). The winged hub of the catheter was turned 90° at the skull and secured with 5 mm titanium screws. […] The skin incision was closed in layers and the externalised catheter tubing secured in a loop on the scalp (FIG. 8d).
Whilst under general anaesthesia the child was transferred to the 3 T MRI scanner. The externalised catheter was attached to a 6 m extension line to allow infusions to be performed from a syringe driver (B Braun) outside of the scan room. Infusions of carboplatin diluted in artificial cerebrospinal fluid to a concentration of 0.09 mg/ml were commenced using the following infusion regime:
0.5 μl/min for 10 minutes, 1 μl/min for 5 minutes, 2.5 μl/min for 5 minutes, 5 μl/min for 5 minutes, 7.5 μl/min until completion.
Serial real-time T2-weighted MRI scans were performed in order to allow areas of hyperintense signal change to be used as a proxy measure for drug distribution. […] Once the Vi:Vd ratio was established the child was recovered from anaesthesia and monitored in a high dependency area until completion of the infusion. […] Infusions of carboplatin were performed on 3 consecutive days in order to maintain exposure to the cytotoxic chemotherapy for at least 72 hours.

[2] = high-dose intravenous delivery; cited from earlier work
[3] = one month after completion of infusions

In the case of `N.N.O=C([O-])C1(C(=O)[O-])CCC1.[Pt+2]` [carboplatin], the “reduction in synaptophysin (indicative of toxicity)” value (synaptophysin; 0.36 mg/ml) is reported as “not at 0.36 mg/ml”, the “reduction in synaptophysin (indicative of toxicity)” value (synaptophysin; 0.72 mg/ml) is reported as “observed at 0.72 mg/ml” and the “volume of T2 signal change on completion of final infusion” value ([1]; after 5 infusions, 0.09 and 0.18 mg/ml) is reported as 35.1 mL. The “volume of distribution (T2-weighted MRI)” value ([1]; after infusion of 0.52 ml, 0.09 mg/ml in artificial CSF) was 2.06 mL, the “follow-up T2-weighted MR imaging” value [1, 3] was “suggestive of the early stages of tumour necrosis” and the “follow-up post-contrast T1-weighted imaging” value [1, 3] was “tumour progression in the inferior and anterior regions of the tumour”. The tolerability of infusions ([1]; patient, 0.09-0.18 mg/ml, up to 10 μl/min) was “well tolerated; also recorded: transient worsening in neurological status” and the “peak glioma tissue concentration” value [2] was 0.013 mg/mL.
